Test results as given in paper PMC6768323, “Adverse Maternal, Fetal, and Postnatal Effects of Hexafluoropropylene Oxide Dimer Acid (GenX) from Oral Gestational Exposure in Sprague-Dawley Rats” (Environmental Health Perspectives, 2019).

Test system: F1 Sprague-Dawley rats
Experiment: Pilot postnatal study, GD14-18 oral maternal dosing
Type: in vivo
Experimental: A single-dose level pilot study utilizing time-mated SD rats was conducted to examine the potential postnatal effects of in utero exposure to HFPO-DA from a similar dosing interval to the fetal studies (Figure 1B). The study consisted of dams exposed to oral daily dosing with either water vehicle or 125mg/kg HFPO-DA ( n=3 for each) from GD14–18. […] Dams gave birth naturally beginning on the morning of GD22 [i.e., postnatal day (PND) 0]. On PND2 all pups were sexed, weighed, and anogenital distance (AGD) was measured using a Leica MZ6 stereomicroscope (Leica Microsystems) fitted with an ocular micrometer. On PND13, the offspring were sexed, weighed, and evaluated for retention of female-like nipples/areolae. On PND27, the dams were euthanized, uterine implantation sites were scored, pups were weaned to two animals per cage by sex and treatment group, and food was changed to NTP2000 rodent diet. Beginning on PND31 for female offspring and PND41 for male offspring, individuals were evaluated daily for markers of pubertal onset, vaginal opening (VO) for females and balano-preputial separation (BPS) for males.
Beginning at PND128, adult F1 females were weighed, euthanized via decapitation, and examined via necropsy for any reproductive tract malformations and tissue weights were collected for uterus, paired ovaries, liver, paired kidneys, and visceral adipose tissue. Similarly, beginning at PND146 adult F1 males were weighed, euthanized, and examined for reproductive tract malformations and weights were collected for all relevant reproductive tissues. Male necropsy included weights of glans penis, ventral prostate, paired seminal vesicles, paired testes, paired epididymides, levator ani–bulbocavernosus (LABC), paired bulbourethral (Cowper’s) glands, paired kidneys, visceral adipose tissue, and epididymal adipose tissue. […] Total sperm counts in epididymal sections were measured using a Multisizer 3 Coulter counter (Beckman Coulter).

[1] = adult F1 female, 125 mg/kg/d, individual means
[2] = adult F1 female, 125 mg/kg/d, litter means
[3] = adult F1 male, 125 mg/kg/d, individual means
[4] = adult F1 male, 125 mg/kg/d, litter means

For `O=C(O)C(F)(OC(F)(F)C(F)(F)C(F)(F)F)C(F)(F)F` (stereo not shown) [HFPO-DA, Hexafluoropropylene oxide dimer acid], the “viable pups per litter versus control dams” value (125 mg/kg) was “equal numbers of viable pups”, the pup survival (125 mg/kg GD14-18) was “no effect on pup survival” and the “Female AGD on PND2” value (125 mg/kg/d, individual means) was 1.5 ± 0.0 mm. The “Female BW at VO” value (125 mg/kg/d, individual means) was 123.4 ± 2.3 g, the “Female BW on PND27” value (125 mg/kg/d, individual means) was 79.1 ± 1.4 g and the “Female NR on PND13” value (125 mg/kg/d, individual means) was 12.0 ± 0.0. For the same compound, the “Female pup BW on PND2” value (125 mg/kg/d, individual means) was 7.5 ± 0.1 g, the “Female pup BW on PND13” value (125 mg/kg/d, individual means) was 28.7 ± 0.3 g and the “Male AGD on PND2” value (125 mg/kg/d, individual means) was 3.7 ± 0.1 mm. The “Male BW at PPS” value (125 mg/kg/d, individual means) was 211.4 ± 3.7 g, the “Male BW on PND27” value (125 mg/kg/d, individual means) was 81.1 ± 1.6 g and the “Male NR on PND2” value (125 mg/kg/d, individual means) was 0.1 ± 0.1. The “Male pup BW on PND2” value (125 mg/kg/d, individual means) was 7.8 ± 0.1 g, the “Male pup BW on PND13” value (125 mg/kg/d, individual means) was 29.3 ± 0.3 g and the “Dam BW GD14” value (125 mg/kg/d, litter means) was 325.5 ± 5.2 g. For the same compound, the “Dam BW GD18” value (125 mg/kg/d, litter means) was 354.9 ± 9.0 g, the “Dam BW gain” value (125 mg/kg/d, litter means) was 29.4 ± 6.0 g and the “Female AGD on PND2” value (125 mg/kg/d, litter means) was 1.5 ± 0.1 mm. For the same compound, the “Female BW at VO” value (125 mg/kg/d, litter means) was 124.3 ± 4.2 g, the “Female BW on PND27” value (125 mg/kg/d, litter means) was 78.2 ± 3.5 g and the “Female NR on PND13” value (125 mg/kg/d, litter means) was 12.0 ± 0.0. For the same compound, the “Female pup BW on PND2” value (125 mg/kg/d, litter means) was 7.5 ± 0.1 g, the “Female pup BW on PND13” value (125 mg/kg/d, litter means) was 28.7 ± 0.1 g and the “Male AGD on PND2” value (125 mg/kg/d, litter means) was 3.7 ± 0.1 mm. The “Male BW at PPS” value (125 mg/kg/d, litter means) was 214.6 ± 8.0 g, the “Male BW on PND27” value (125 mg/kg/d, litter means) was 83.3 ± 4.7 g and the “Male NR on PND2” value (125 mg/kg/d, litter means) was 0.1 ± 0.1. For the same compound, the “Male pup BW on PND2” value (125 mg/kg/d, litter means) was 7.8 ± 0.1 g, the “Male pup BW on PND13” value (125 mg/kg/d, litter means) was 29.5 ± 0.5 g and the No. implants (125 mg/kg/d, litter means) was 13.0 ± 1.0. For the same compound, the “No. pups on PND2” value (125 mg/kg/d, litter means) was 12.7 ± 0.7, the “Post-implantation loss on PND2” value (125 mg/kg/d, litter means) was 2.2 ± 2.2% and the “adult female AGD and liver weight” value (125 mg/kg, individual basis) was “significantly smaller AGD and lower liver weight”. For the same compound, the “weights of right, left, paired testes, right, left, paired epididymides, epididymal adipose tissue” value (125 mg/kg, individual basis) was “significantly lower tissue weights”, the “female offspring body weight (PND2, PND27, at VO)” value (125 mg/kg, individual pup basis) was “significantly lower than controls” and the “adult female necropsy end points” value (125 mg/kg, litter means basis) was “no significant differences”. The “end points measured through the onset of puberty” value (125 mg/kg, litter means basis) was “no significant differences”, the “right epididymis tissue weight, adult males” value (125 mg/kg, litter means basis) was “significantly lower” and the AGD [1] was 16.7 ± 0.7 mm. The Body weight [1] was 370.3 ± 12.3 g, the Liver [1] was 11.3 ± 0.3 g and the Paired kidneys [1] was 2.1 ± 0.1 g. The Paired ovaries [1] was 123.2 ± 3.6 mg, the Uterus [1] was 635.6 ± 48.9 mg and the Visceral adipose tissue [1] was 25.2 ± 2.4 g. It also gave an AGD [2] of 16.8 ± 0.5 mm, a Body weight [2] of 374.0 ± 25.0 g and a Liver [2] of 11.4 ± 0.5 g. The Paired kidneys [2] was 2.1 ± 0.1 g, the Paired ovaries [2] was 122.5 ± 8.6 mg and the Uterus [2] was 635.4 ± 74.3 mg. The Visceral adipose tissue [2] was 25.1 ± 4.6 g, the Body weight [3] was 676.5 ± 10.6 g and the Cauda sperm [3] was 159.7 ± 4.7 106. For the same compound, the Corpus/caput sperm [3] was 72.6 ± 2.3 106, the Epididymal adipose tissue [3] was 7.8 ± 0.5 g and the Glans penis [3] was 134.5 ± 3.0 mg. The LABC [3] was 1.6 ± 0.0 g, the Left epididymis [3] was 668.1 ± 10.4 mg and the Left testis [3] was 1.9 ± 0.0 g. For the same compound, the Liver [3] was 20.1 ± 0.4 g, the “Paired Cowper’s glands” value [3] was 163.4 ± 5.2 mg and the Paired epididymides [3] was 1331.2 ± 21.2 mg. The Paired kidneys [3] was 3.4 ± 0.1 g, the Paired seminal vesicles [3] was 1.8 ± 0.1 g and the Paired testes [3] was 3.8 ± 0.1 g. It also gave a Right cauda [3] of 310.5 ± 6.2 mg, a Right corpus/caput [3] of 352.6 ± 7.1 mg and a Right epididymis [3] of 663.1 ± 11.2 mg. The Right testis [3] was 1.9 ± 0.0 g, the Total epididymal sperm [3] was 185.8 ± 4.7 106 and the Ventral prostate [3] was 682.1 ± 32.7 mg. The Visceral adipose tissue [3] was 25.8 ± 1.5 g, the Body weight [4] was 682.6 ± 13.4 g and the Cauda sperm [4] was 160.0 ± 3.4 106. For the same compound, the Corpus/caput sperm [4] was 72.0 ± 2.8 106, the Epididymal adipose tissue [4] was 8.2 ± 1.0 g and the Glans penis [4] was 135.0 ± 1.5 mg. It also gave an LABC [4] of 1.5 ± 0.1 g, a Left epididymis [4] of 664.2 ± 12.5 mg and a Left testis [4] of 1.9 ± 0.0 g. For the same compound, the Liver [4] was 20.2 ± 0.4 g, the “Paired Cowper’s glands” value [4] was 165.6 ± 9.7 mg and the Paired epididymides [4] was 1323.7 ± 24.3 mg. For the same compound, the Paired kidneys [4] was 3.4 ± 0.0 g, the Paired seminal vesicles [4] was 1.8 ± 0.1 g and the Paired testes [4] was 3.8 ± 0.1 g. The Right cauda [4] was 309.0 ± 6.0 mg, the Right corpus/caput [4] was 350.5 ± 5.9 mg and the Right epididymis [4] was 659.5 ± 11.8 mg. For the same compound, the Right testis [4] was 1.9 ± 0.0 g, the Total epididymal sperm [4] was 185.6 ± 2.0 106 and the Ventral prostate [4] was 678.7 ± 30.1 mg. It also gave a Visceral adipose tissue [4] of 26.8 ± 2.4 g.
